Experimental data taken from publication PMC12491383, “Organ and tumour dosimetry of ^177Lu-rhPSMA-10.1, a novel PSMA-targeted therapy: results from a Phase I trial” (European Journal of Nuclear Medicine and Molecular Imaging, 2025).

Test: SPECT/CT image-based normal organ dosimetry (MIRD S-value methodology), Phase I BET-PSMA-121
Assay type: in vivo, human
Details: for Cumulative Absorbed Dose, Bone Marrow, % of dose limit / Cumulative Absorbed Dose, Kidney, % of dose limit / Cumulative Absorbed Dose, Salivary Glands, % of dose limit / Cumulative Absorbed Dose, Bone Marrow / Cumulative Absorbed Dose, Kidney / Cumulative Absorbed Dose, Salivary Glands: Cohort B; for Cumulative Absorbed Dose, Bone Marrow, % of dose limit: limit 2 Gy; for Cumulative Absorbed Dose, Salivary Glands, % of dose limit: limit 24 Gy
Description: Figure 1 provides a schematic representation of the study. Enrolled patients were sequentially entered into one of the two cohorts. Cohort A received 5.55 GBq (150 mCi) of ^177Lu-rhPSMA-10.1 and Cohort B received 7.40 GBq (200 mCi) of ^177Lu-rhPSMA-10.1. Subsequent doses were delivered at 6-week intervals subject to individual tolerability and safety assessments. Each patient received between one and three cycles, with a maximum of three cycles of treatment being permitted in this initial part of the study. All administrations of ^177Lu-rhPSMA-10.1 were performed using intravenous injection under the supervision of the treating physician.
Multi-bed single-photon emission computed tomography (SPECT)/CT was conducted at 3-, 24-, 48- and 168-hours post-^177Lu-rhPSMA-10.1 administration in each treatment cycle for the estimation of organ and tumour absorbed doses in each patient. Prior to commencement of the study, each investigating site was required to complete a calibration of their dose calibrator and SPECT/CT system to ensure harmonised quantification of the imaging data. Quantitative reconstructions and all dosimetry analyses were carried out centrally by an independent dosimetry vendor (Radiopharmaceutical Imaging and Dosimetry LLC, Baltimore, MD).
The specific absorbed doses (Gy/GBq) in normal organs and tumours were determined using the Medical Internal Radiation Dose (MIRD) Committee S-value methodology. Individual patient organ masses, determined via CT delineation, were scaled to reflect deviations from reference phantom geometry. Cumulative organ absorbed doses (Gy) were calculated across all treatment cycles. Further details on dosimetry methodology are provided in the supplemental materials and have been reported in accordance with EANM guidance.
All patients underwent multi-bed single-photon emission computed tomography (SPECT)/CT at 3-, 24-, 48- and 168-hours post-^177Lu-rhPSMA-10.1 administration during each treatment cycle. The acquisition parameters are shown in Supplemental Table S1. All images were centrally reconstructed in 3D-RD-S using the iterative Ordered Subsets Expectation-Maximization (OSEM) algorithm with 40 iterations and 5 subsets. Attenuation, scatter, and the Collimator-Detector Response Function (CDRF) were modelled during the iterative process using a rotation-based projector. CT-based attenuation compensation was performed using the attenuation map generated from the CT image. Scatter was modelled using the Effective Source Scatter Estimation (ESSE) method.
Reconstructed images were converted to activity concentration units (Becquerel (Bq)/millilitre (mL)) using the calibration factor generated for each individual imaging system. Organ masses were individually determined using CT-based delineations and longitudinal SPECT activity statistics were based on these same delineations.
Time integrated activity coefficients (TIACs) were calculated for each target tissue. This was done by fitting each time–activity curve with an exponential function (mono, bi, or exponential uptake and washout) and integrating from time 0 to infinity. The simpler function was preferred provided the fit was adequate ([…]).
The TIAC in the bone marrow was derived from contours drawn around the marrow inside lumbar vertebrae L3–L5. Where lesions were present in the lumbar area, contours were drawn around either the femur heads, scapula or sternum depending on the anatomical coverage. The TIAC was then divided by the marrow mass in this region to give the TIAC concentration. The total bone marrow TIAC was be obtained as the product of this concentration and the standard International Commission on Radiological Protection (ICRP) bone marrow mass.
The S-value methodology was used to estimate the target tissue dose. […]

[1] = Patient 4, 3 cycles, 22.94 GBq cumulative
[2] = Patient 5, 3 cycles, 22.29 GBq cumulative
[3] = Patient 6, 3 cycles, 22.59 GBq cumulative
[4] = Patient 7, 3 cycles, 22.29 GBq cumulative
[5] = Patient 8, 3 cycles, 22.86 GBq cumulative
[6] = Patient 9, 3 cycles, 22.10 GBq cumulative
[7] = Patient 10, 3 cycles, 23.30 GBq cumulative
[8] = Patient 11, 1 cycle, 7.80 GBq cumulative
[9] = Patient 12, 1 cycle, 7.46 GBq cumulative
[10] = Patient 13, 3 cycles, 22.23 GBq cumulative

## CC(C)(C)[Si](F)(c1ccc(C(=O)NC[C@@H](NC(=O)CN2CCN(CC(=O)[O-])CCN(CC(=O)[O-])CCN(CC(=O)[O-])CC2)C(=O)N[C@H](CCCCNC(=O)CCC(=O)NCCC[C@@H](NC(=O)CC[C@H](NC(=O)N[C@@H](CCC(=O)O)C(=O)O)C(=O)O)C(=O)O)C(=O)O)cc1)C(C)(C)C.[177Lu+3] [^177Lu-rhPSMA-10.1]
[1]
  Cumulative Absorbed Dose, Bone Marrow, % of dose limit: 6.5%
  Cumulative Absorbed Dose, Salivary Glands, % of dose limit: 12%
Patient 4, 3 cycles, 22.94 GBq cumulative, limit 23 Gy
  Cumulative Absorbed Dose, Kidney, % of dose limit: 36%
[2]
  Cumulative Absorbed Dose, Bone Marrow: 0.07 Gy
  Cumulative Absorbed Dose, Kidney: 6.25 Gy
  Cumulative Absorbed Dose, Salivary Glands: 2.85 Gy
  Cumulative Absorbed Dose, Bone Marrow, % of dose limit: 3.5%
  Cumulative Absorbed Dose, Salivary Glands, % of dose limit: 12%
Patient 5, 3 cycles, 22.29 GBq cumulative, limit 23 Gy
  Cumulative Absorbed Dose, Kidney, % of dose limit: 27%
[3]
  Cumulative Absorbed Dose, Bone Marrow: 0.42 Gy
  Cumulative Absorbed Dose, Kidney: 7.31 Gy
  Cumulative Absorbed Dose, Salivary Glands: 2.87 Gy
  Cumulative Absorbed Dose, Bone Marrow, % of dose limit: 21%
  Cumulative Absorbed Dose, Salivary Glands, % of dose limit: 12%
Patient 6, 3 cycles, 22.59 GBq cumulative, limit 23 Gy
  Cumulative Absorbed Dose, Kidney, % of dose limit: 32%
[4]
  Cumulative Absorbed Dose, Bone Marrow: 0.05 Gy
  Cumulative Absorbed Dose, Kidney: 4.02 Gy
  Cumulative Absorbed Dose, Salivary Glands: 2.88 Gy
  Cumulative Absorbed Dose, Bone Marrow, % of dose limit: 2.5%
  Cumulative Absorbed Dose, Salivary Glands, % of dose limit: 12%
Patient 7, 3 cycles, 22.29 GBq cumulative, limit 23 Gy
  Cumulative Absorbed Dose, Kidney, % of dose limit: 17%
[5]
  Cumulative Absorbed Dose, Bone Marrow: 0.24 Gy
  Cumulative Absorbed Dose, Kidney: 5.18 Gy
  Cumulative Absorbed Dose, Salivary Glands: 1.17 Gy
  Cumulative Absorbed Dose, Bone Marrow, % of dose limit: 12%
  Cumulative Absorbed Dose, Salivary Glands, % of dose limit: 4.9%
Patient 8, 3 cycles, 22.86 GBq cumulative, limit 23 Gy
  Cumulative Absorbed Dose, Kidney, % of dose limit: 23%
[6]
  Cumulative Absorbed Dose, Bone Marrow: 0.05 Gy
  Cumulative Absorbed Dose, Kidney: 5.18 Gy
  Cumulative Absorbed Dose, Salivary Glands: 2.00 Gy
  Cumulative Absorbed Dose, Bone Marrow, % of dose limit: 2.5%
  Cumulative Absorbed Dose, Salivary Glands, % of dose limit: 8.3%
Patient 9, 3 cycles, 22.10 GBq cumulative, limit 23 Gy
  Cumulative Absorbed Dose, Kidney, % of dose limit: 23%
[7]
  Cumulative Absorbed Dose, Bone Marrow: 0.03 Gy
  Cumulative Absorbed Dose, Kidney: 4.29 Gy
  Cumulative Absorbed Dose, Salivary Glands: 0.82 Gy
  Cumulative Absorbed Dose, Bone Marrow, % of dose limit: 1.5%
  Cumulative Absorbed Dose, Salivary Glands, % of dose limit: 3.4%
Patient 10, 3 cycles, 23.30 GBq cumulative, limit 23 Gy
  Cumulative Absorbed Dose, Kidney, % of dose limit: 19%
[8]
  Cumulative Absorbed Dose, Bone Marrow: 0.23 Gy
  Cumulative Absorbed Dose, Kidney: 1.52 Gy
  Cumulative Absorbed Dose, Salivary Glands: 0.88 Gy
  Cumulative Absorbed Dose, Bone Marrow, % of dose limit: 11%
  Cumulative Absorbed Dose, Salivary Glands, % of dose limit: 3.7%
Patient 11, 1 cycle, 7.80 GBq cumulative, limit 23 Gy
  Cumulative Absorbed Dose, Kidney, % of dose limit: 6.6%
[9]
  Cumulative Absorbed Dose, Bone Marrow: 0.04 Gy
  Cumulative Absorbed Dose, Kidney: 1.71 Gy
  Cumulative Absorbed Dose, Salivary Glands: 0.79 Gy
  Cumulative Absorbed Dose, Bone Marrow, % of dose limit: 2.0%
  Cumulative Absorbed Dose, Salivary Glands, % of dose limit: 3.3%
Patient 12, 1 cycle, 7.46 GBq cumulative, limit 23 Gy
  Cumulative Absorbed Dose, Kidney, % of dose limit: 7.4%
[10]
  Cumulative Absorbed Dose, Bone Marrow: 0.05 Gy
  Cumulative Absorbed Dose, Kidney: 4.63 Gy
  Cumulative Absorbed Dose, Salivary Glands: 3.40 Gy
  Cumulative Absorbed Dose, Bone Marrow, % of dose limit: 2.5%
  Cumulative Absorbed Dose, Salivary Glands, % of dose limit: 14%
Patient 13, 3 cycles, 22.23 GBq cumulative, limit 23 Gy
  Cumulative Absorbed Dose, Kidney, % of dose limit: 20%
All patients, both dosing cohorts
  Cumulative absorbed doses versus historical EBRT organ dose limits: below the historical external beam radiation therapy (EBRT) organ dose limits
At 7.4 GBq per cycle, range across the 13 patients
  Equivalent number of treatment cycles to reach the EBRT kidney dose limit of 23 Gy: 6–17 cycles
Limit 23 Gy, maximum of three cycles
  Cumulative absorbed dose to the kidney as % of the EBRT dose limit, highest reached: ≤ 36%
